Data: patent US20060143718A1, “Transgenic animals for monitoring water quality” (priority 2000, published 2006)

Experiments:
AHRE reporter constructs = assay: Transient transfection of LUC reporter constructs in zebrafish ZEM2S cells, AHRE constructs; type: cell-based
[1] = cited from earlier work
MRE constructs = assay: Transient transfection of LUC reporter constructs in zebrafish ZEM2S cells, MRE constructs; type: cell-based
EPRE constructs = assay: Transient transfection of LUC reporter constructs in zebrafish ZEM2S cells, EPRE constructs; type: cell-based

Clc1cc2c(cc1Cl)Oc1cc(Cl)c(Cl)cc1O2 [TCDD, 2,3,7,8-tetrachlorodibenzo-p-dioxin]
concentration achieving maximal LUC activity (AHRE reporter constructs): 10 nM | bioconcentration in fish [1]: 100,000 fold | bioconcentration ([1]; fish, in the food chain): > 100,000 times

[Cl][Cd][Cl] [CdCl2]
concentration achieving maximal LUC activity (MRE constructs): 30 µM

CC(C)(C)c1cc(O)ccc1O [tBHQ]
concentration achieving maximal LUC activity (EPRE constructs): 10 µM
